The values below come from patent publication US9051310B2, “Nicotinamide derivative or salt thereof” (FUJIFILM Corporation, priority 2011, dated 2015).

Assay [1] deals with T1, glutathione S-transferase (GST)-linked full-length human Syk protein (Homo sapiens, UniProt P43405).
T1 construct: glutathione S-transferase (GST)-linked full-length human Syk protein; purchased Carna Biosciences; host or cells: Baculovirus expression system
The experiment in a line: Syk enzyme assay. Format: biochemical. Particulars: 0.83 nM Syk, time-resolved fluorescence; read-out: IC50 of Syk-inhibitory activity. The method, boiled down: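 Phosphotyrosine on a biotin-peptide substrate (0.5 μM) was read by time-resolved fluorescence at 615 and 665 nm with Eu-anti-pTyr antibody and APC-streptavidin after 1 h EDTA stop.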

In assay [2] the test system is THP-1 cells (phagocytosis of opsonized Escherichia coli). Description: Antibody-dependent phagocytosis assay. It is filed as cell-based. To be noted: Homo sapiens; IFNγ differentiated THP-1 cells, opsonized pHrodo Escherichia coli, 3 hours; read-out: IC50 upon phagocytosis inhibition. As for the experimental part: THP-1 cells (2×10^5 cells/ml), which were human monocytoid cells, were cultured in the presence of 10 ng/ml IFNγ for 2 days, and they were induced to differentiate into macrophage-like cells. The differentiation-induced THP-1 cells were recovered, and the cells (5×10^4 cells/well) were then allowed to react with a predetermined concentration of test compound at room temperature for 30 minutes. Thereafter, Escherichia coli (Life Technologies) labeled with a pH-sensitive dye (pHrodo) was subjected to opsonization using an anti-Escherichia coli antibody (Life Technologies). Then, the resultant was added to the THP-1 cells obtained above, followed by incubation at 37° C. for 3 hours. Opsonized Escherichia coli and cell-permeable fluorescent dye (Calcein AM) were simultaneously added thereto, followed by quantitative determination of phagocytosis of opsonized Escherichia coli in viable cells using an IN Cell Analyzer.

For assay [3], the system named is THP-1 cells (TNFα secretion on human IgG-coated plate). Description: TNFα generation assay. It is filed as cell-based. Particulars: IFN-γ differentiated THP-1 cells, 7 hours, AlphaLISA, read-out: IC50 of TNFα generation inhibitory activity. The procedure, abridged: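 Secreted TNFα was measured by AlphaLISA after 7 h of culture on human IgG-coated wells (coating at 10 μg/ml), with 5×10^4 cells/well. Before plating, the cells had been treated with compound for 30 min at room temperature. The cells were macrophage-like THP-1, produced by a 2-day exposure to 10 ng/ml IFN-γ.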
In general terms: Alpha assays give light when donor and acceptor beads are brought close together.

Turning to `NC(=O)c1cc(F)c(N[C@@H]2CCOC[C@@H]2N)nc1Nc1cnc(N2CCOCC2)c(F)c1` [Example 2-217, 6-(((3R,4R)-3-aminotetrahydro-2H-pyran-4-yl)amino)-5-fluoro-2-((5-fluoro-6-morpholinopyridin-3-yl)amino)nicotinamide], the IC50 in assay [1] lay within 50 to 100 nM; in assay [2], 1000 to 3000 nM.
`CSCC[C@@H](Nc1nc(Nc2cnc(C)c(-n3nccn3)c2)c(C(N)=O)cc1F)[C@H](C)N` [Example 2-343, 6-(((3R,4S)-4-amino-1-(methylthio)pentan-3-yl)amino)-5-fluoro-2-((6-methyl-5-(2H-1,2,3-triazol-2-yl)pyridin-3-yl)amino)nicotinamide]: the IC50 was in the range of 10 to 50 nM in assay [1] and 1000 to 3000 nM in assay [2].
The like results for `C[C@H](N)[C@H](Nc1nc(Nc2ccc3ncccc3c2)c(C(N)=O)cc1F)c1ccccc1` [Example 2-312, 6-(((1R,2S)-2-amino-1-phenylpropyl)amino)-5-fluoro-2-(quinolin-6-ylamino)nicotinamide] were, in that order, less than 10 nM and less than 1000 nM.
The like results for `CCC[C@@H](Nc1nc(Nc2ccc3c(c2)c(OC(F)F)nn3C)c(C(N)=O)cc1F)[C@H](C)N` [Example 2-349, 6-(((2S,3R)-2-aminohexan-3-yl)amino)-2-((3-(difluoromethoxy)-1-methyl-1H-indazol-5-yl)amino)-5-fluoronicotinamide] were, in that order, less than 10 nM and 1000 to 3000 nM.
For `CCC[C@@H](Nc1nc(Nc2cncc3c2cnn3CC(F)F)c(C(N)=O)cc1F)[C@H](C)N` [Example 2-397, 6-(((2S,3R)-2-aminohexan-3-yl)amino)-2-((1-(2,2-difluoroethyl)-1H-pyrazolo[3,4-c]pyridin-4-yl)amino)-5-fluoronicotinamide], the values for the IC50 in assay [1] and in assay [2] were less than 10 nM and 1000 to 3000 nM, respectively.
The like results for `COc1ncc(Nc2nc(N[C@H](C3CC3)[C@H](C)N)c(F)cc2C(N)=O)cc1-n1nccn1` [Example 2-113, 6-(((1R,2S)-2-amino-1-cyclopropylpropyl)amino)-5-fluoro-2-((6-methoxy-5-(2H-1,2,3-triazol-2-yl)pyridin-3-yl)amino)nicotinamide] were, in that order, 10 to 50 nM and 1000 to 3000 nM.
The like results for `COCCn1nc(OC)c2cc(Nc3nc(N[C@@H](CN)CC(C)C)c(F)cc3C(N)=O)ccc21` [Example 2-124, (R)-6-((1-amino-4-methylpentan-2-yl)amino)-5-fluoro-2-((3-methoxy-1-(2-methoxyethyl)-1H-indazol-5-yl)amino)nicotinamide] were, in that order, less than 10 nM and less than 1000 nM.
The like results for `CC(C)C[C@@H](Nc1nc(Nc2cc(N3CCOCC3)ncc2F)c(C(N)=O)cc1F)[C@H](C)N` [Example 2-236, 6-(((2S,3R)-2-amino-5-methylhexan-3-yl)amino)-5-fluoro-2-((5-fluoro-2-morpholinopyridin-4-yl)amino)nicotinamide] were, in that order, 10 to 50 nM and 1000 to 3000 nM.
`COc1nn(C)c2c(F)cc(Nc3nc(N[C@H](C4CCC4)[C@H](C)N)c(F)cc3C(N)=O)cc12` [Example 2-158, 6-(((1R,2S)-2-amino-1-cyclobutylpropyl)amino)-5-fluoro-2-((7-fluoro-3-methoxy-1-methyl-1H-indazol-5-yl)amino)nicotinamide]: the IC50 was less than 10 nM in assay [1] and less than 1000 nM in assay [2].
The like results for `CCn1ncc2c(Nc3nc(N[C@H](COC)[C@H](C)N)c(F)cc3C(N)=O)cncc21` [Example 2-323, 6-(((2S,3S)-3-amino-1-methoxybutan-2-yl)amino)-2-((1-ethyl-1H-pyrazolo[3,4-c]pyridin-4-yl)amino)-5-fluoronicotinamide] were, in that order, 10 to 50 nM and 1000 to 3000 nM.
In the case of `CCC[C@@H](Nc1nc(Nc2cnc(OC)c(-n3ccnn3)c2)c(C(N)=O)cc1F)[C@H](C)N` [Example 2-205, 6-(((2S,3R)-2-aminohexan-3-yl)amino)-5-fluoro-2-((6-methoxy-5-(1H-1,2,3-triazol-1-yl)pyridin-3-yl)amino)nicotinamide], the IC50 was in the range of 10 to 50 nM in assay [1] and 1000 to 3000 nM in assay [2].
Taken in the same sequence, the figures for `NC(=O)c1cc(F)c(N[C@@H]2CCOC[C@@H]2N)nc1Nc1ccnc(N2CCOCC2)c1F` [Example 2-231, 6-(((3R,4R)-3-aminotetrahydro-2H-pyran-4-yl)amino)-5-fluoro-2-((3-fluoro-2-morpholinopyridin-4-yl)amino)nicotinamide] were 10 to 50 nM and 1000 to 3000 nM.
Turning to `NC(=O)c1cc(F)c(N[C@@H]2CCCC[C@@H]2N)nc1Nc1cnc(OC(F)F)c(-n2nccn2)c1` [Example 2-238, 6-(((1R,2S)-2-aminocyclohexyl)amino)-2-((6-(difluoromethoxy)-5-(2H-1,2,3-triazol-2-yl)pyridin-3-yl)amino)-5-fluoronicotinamide], the IC50 in assay [1] is 10 to 50 nM; in assay [2], less than 1000 nM.
The like results for `Cn1nc(OC(F)F)c2cc(Nc3nc(N[C@@H]4CCCC[C@@H]4N)c(F)cc3C(N)=O)ccc21` [Example 2-169, 6-(((1R,2S)-2-aminocyclohexyl)amino)-2-((3-(difluoromethoxy)-1-methyl-1H-indazol-5-yl)amino)-5-fluoronicotinamide] were, in that order, less than 10 nM and less than 1000 nM.
Take `CCOc1ncc(Nc2nc(N[C@H](C3CC3)[C@H](C)N)c(F)cc2C(N)=O)cc1-n1ccnn1` [Example 2-163, 6-(((1R,2S)-2-amino-1-cyclopropylpropyl)amino)-2-((6-ethoxy-5-(1H-1,2,3-triazol-1-yl)pyridin-3-yl)amino)-5-fluoronicotinamide]: the IC50 fell in the range of 10 to 50 nM in assay [1] and 1000 to 3000 nM in assay [2].
Taken in the same sequence, the figures for `COCCn1nc(OC)c2cc(Nc3nc(N[C@H](COC)[C@H](C)N)c(F)cc3C(N)=O)ccc21` [Example 2-128, 6-(((2S,3S)-3-amino-1-methoxybutan-2-yl)amino)-5-fluoro-2-((3-methoxy-1-(2-methoxyethyl)-1H-indazol-5-yl)amino)nicotinamide] were 10 to 50 nM and 1000 to 3000 nM.
Regarding `COc1ccc([C@@H](Nc2nc(Nc3cnc(C)c(-n4nccn4)c3)c(C(N)=O)cc2F)[C@H](C)N)cc1` [Example 2-338, 6-(((1R,2S)-2-amino-1-(4-methoxyphenyl)propyl)amino)-5-fluoro-2-((6-methyl-5-(2H-1,2,3-triazol-2-yl)pyridin-3-yl)amino)nicotinamide], the results for the IC50 in assay [1] and in assay [2] were 10 to 50 nM and less than 1000 nM, respectively.
`CCCC[C@@H](Nc1nc(Nc2cncc3c2cnn3CC(F)F)c(C(N)=O)cc1F)[C@H](C)N` [Example 2-399, 6-(((2S,3R)-2-aminoheptan-3-yl)amino)-2-((1-(2,2-difluoroethyl)-1H-pyrazolo[3,4-c]pyridin-4-yl)amino)-5-fluoronicotinamide]: the IC50 in assay [1] is less than 10 nM; in assay [2] it was 1000 to 3000 nM.
With `NC[C@@H](Cc1ccccc1)Nc1nc(Nc2ccc(N3CCOCC3)nc2)c(C(N)=O)cc1F` [Example 2-420, (R)-6-((1-amino-3-phenylpropan-2-yl)amino)-5-fluoro-2-((6-morpholinopyridin-3-yl)amino)nicotinamide], the IC50 in assay [2] was less than 1000 nM.
Turning to `CCn1nc(OC)c2cc(Nc3nc(N[C@H](C4CC4)[C@H](C)N)c(F)cc3C(N)=O)ccc21` [Example 2-73, 6-(((1R,2S)-2-amino-1-cyclopropylpropyl)amino)-2-((1-ethyl-3-methoxy-1H-indazol-5-yl)amino)-5-fluoronicotinamide], the IC50 in assay [1] is less than 10 nM; in assay [3], 130 to 200 nM.
